Laboratory results published in ChEMBL document CHEMBL1201862, “PubChem BioAssay data set” (2004).
Counter-ions that a name gives are not always drawn.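 These data come from cells grown in 96-well plates and exposed to compound for 48 hours at five concentrations. The concentration for 50% growth inhibition is given as GI50.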 Activity calls are given as the source filed them. No stated cut-off is given here; in the data, active = GI50 up to about 1.1 µM and inactive = higher.

Key:
Experiment in all cases: growth of human tumour cells (NCI), 48 h
[1] = system: 786-0
[2] = system: A498
[3] = system: A549
[4] = system: ACHN
[5] = system: BT-549
[6] = system: CAKI-1
[7] = system: CCRF-CEM
[8] = system: COLO 205
[9] = system: DLD-1
[10] = system: DMS-114
[11] = system: DMS-273
[12] = system: DU-145
[13] = system: EKVX
[14] = system: HCC 2998
[15] = system: HCT-116
[16] = system: HCT-15
[17] = system: HL-60
[18] = system: HOP-18
[19] = system: HOP-62
[20] = system: HOP-92
[21] = system: HT-29
[22] = system: Hs-578T
[23] = system: IGROV-1
[24] = system: K562
[25] = system: KM-20L2
[26] = system: KM12
[27] = system: LOX IMVI
[28] = system: LXFL 529
[29] = system: M14
[30] = system: M19-MEL
[31] = system: MCF7
[32] = system: MDA-MB-231
[33] = system: MDA-MB-435
[34] = system: MDA-N
[35] = system: MOLT-4
[36] = system: Malme-3M
[37] = system: NCI-H226
[38] = system: NCI-H23
[39] = system: NCI-H460
[40] = system: NCI-H522
[41] = system: NCI/ADR-RES
[42] = system: OVCAR-3
[43] = system: OVCAR-4
[44] = system: OVCAR-5
[45] = system: OVCAR-8
[46] = system: PC-3
[47] = system: RPMI-8226
[48] = system: RXF 393
[49] = system: RXF 631
[50] = system: SF-268
[51] = system: SF-295
[52] = system: SF-539
[53] = system: SK-MEL-28
[54] = system: SK-MEL-2
[55] = system: SK-MEL-5
[56] = system: SK-OV-3
[57] = system: SN12C
[58] = system: SNB-19
[59] = system: SNB-75
[60] = system: SNB-78
[61] = system: SR
[62] = system: SW-620
[63] = system: T47D
[64] = system: TK-10
[65] = system: U-251
[66] = system: UACC-62
[67] = system: UO-31
[68] = system: XF498
[69] = system: UACC-257

Measured: GI50

NCCSSCCN [CYSTAMINE HYDROCHLORIDE]
> 100 µM: [16]
inactive: [1] > 100 µM | [2] > 100 µM | [3] > 100 µM | [4] > 100 µM | [5] > 100 µM | [6] > 100 µM | [7] 56.1 µM | [8] > 100 µM | [9] > 100 µM | [10] > 100 µM | [11] > 100 µM | [12] > 100 µM | [13] > 100 µM | [14] > 100 µM | [15] > 100 µM | [17] > 100 µM | [18] > 100 µM | [19] > 100 µM | [20] > 100 µM | [21] > 100 µM | [22] > 100 µM | [23] > 100 µM | [24] > 100 µM | [25] > 100 µM | [26] > 100 µM | [27] > 100 µM | [28] > 100 µM | [29] > 100 µM | [30] > 100 µM | [31] > 100 µM | [32] > 100 µM | [33] > 100 µM | [34] > 100 µM | [35] > 100 µM | [36] > 100 µM | [37] > 100 µM | [38] > 100 µM | [39] > 100 µM | [40] > 100 µM | [41] > 100 µM | [42] > 100 µM | [43] > 100 µM | [44] > 100 µM | [45] > 100 µM | [46] > 100 µM | [47] > 100 µM | [48] > 100 µM | [49] > 100 µM | [50] > 100 µM | [51] > 100 µM | [52] > 100 µM | [53] > 100 µM | [54] > 100 µM | [55] > 100 µM | [56] > 100 µM | [57] > 100 µM | [58] > 100 µM | [59] > 100 µM | [60] > 100 µM | [61] > 100 µM | [62] > 100 µM | [63] > 100 µM | [64] > 100 µM | [65] > 100 µM | [66] > 100 µM | [67] > 100 µM | [68] > 100 µM

COc1ccc(/C=C\c2cc(OC)c(OC)c(OC)c2)cc1OC(=O)NCCN(C)C
inactive: [18] 16.8 µM | [53] 11.8 µM
0.000132 µM: [16]
active: [1] 0.00161 µM | [2] 0.000269 µM | [3] 0.00187 µM | [4] 0.000659 µM | [5] 0.83 µM | [6] 0.0386 µM | [7] 0.000133 µM | [8] 0.215 µM | [9] < 0.0001 µM | [10] < 0.0001 µM | [11] < 0.0001 µM | [12] 0.000307 µM | [13] < 0.0247 µM | [14] 0.0631 µM | [15] < 0.0001 µM | [17] < 0.0001 µM | [19] 0.000151 µM | [20] < 0.0001 µM | [21] 0.526 µM | [22] 0.000137 µM | [24] < 0.0001 µM | [25] 0.136 µM | [27] 0.000147 µM | [28] < 0.0001 µM | [29] 0.000156 µM | [30] < 0.0001 µM | [31] 0.00334 µM | [32] 0.01 µM | [33] < 0.0001 µM | [34] < 0.0001 µM | [35] 0.000145 µM | [36] 0.00284 µM | [37] 0.0064 µM | [38] 0.000121 µM | [39] 0.000125 µM | [40] 0.000119 µM | [41] < 0.0001 µM | [42] 0.000107 µM | [43] 0.00144 µM | [44] 0.00764 µM | [45] 0.000143 µM | [46] 0.000152 µM | [47] 0.00014 µM | [48] < 0.0001 µM | [49] 0.000196 µM | [51] 0.000119 µM | [52] 0.000133 µM | [55] < 0.0001 µM | [56] 0.00339 µM | [57] 0.000244 µM | [58] 0.000178 µM | [59] 0.000215 µM | [60] < 0.0001 µM | [61] 0.000154 µM | [62] < 0.0001 µM | [64] 0.297 µM | [65] 0.000125 µM | [69] 0.00839 µM | [66] < 0.0001 µM | [67] 0.00411 µM | [68] < 0.0001 µM
